This is an account of results in patent US9801371B2, “Self-assembling polymer particle release system” (priority 2010, dated 2017).

Molecules are shown by their SMILES. Where “and” joins values, the source holds several entries; their conditions need not be identical. Identical values can stand only once. Like-named read-outs stand apart in the source and are kept apart here.

Data set [1] can be described thus: Filter paper test: ten 10-ml water washings, UV analysis of AI washed through. Particulars: for R (rating factor, number of washings to deplete the AI): ten 10-ml water washings; for mobility on filter paper or soil: washed with several 10 ml aliquots of water. In kind it is physicochemical. The source says:
All of the polymers in this set of experiments were combined with the AI at a 70% AI by weight to 30% polymer by weight concentrations. […] The filter paper samples were applied to a slightly wet Buchner funnel to set the paper evenly and then ten 10-ml aliquots of de-ionized (DI) water were suctioned through the filter paper. Ultraviolet light (UV) analysis for each of the 10-ml fractions was used to determine the absorption of the AI (264 nm) washed through the filter paper and recorded as absorption versus each individual 10-ml wash.
The control for these systems was evaluated by placing methylene chloride solutions of the AI alone or the polymer alone onto the filter paper, drying overnight, and washing with ten 10-ml aliquots of DI water.
The AI was dry ground (mortar and pestle) with urea-formaldehyde flower foam as the cage material [commercial product (Foliage Fresh)] where the ratio of AI to flower foam was 70%/30% by weight. This mixture then was tumbled-coated with an organic solvent solution of a hydrophobic polymer (paraffin wax/hexane; polystyrene/toluene; silicone oil/toluene) in a round bottom flask. […] Small amounts (0.07 g) of the powder were placed on the filter paper and subsequently washed with ten 10-ml aliquots of DI water and analyzed in a similar manner as previously described.
Liquid samples of the AI-polymer combinations and AI control samples were applied to filter paper (Whatman #2) and dried for 24 hours at room temperature. The filter paper containing the AI-polymer combination or the AI control samples were placed in a Buchner funnel under water aspiration vacuum conditions, while ten 10-ml aliquots of water were applied to the top of the filter paper containing the AI-polymer or AI control material, which was then sucked through the filter paper and collected in the receiving flask that holds the funnel-vacuum attachment.
After each 10-ml aliquot of water was suctioned through the filter paper containing the sample, the suctioned solution then was removed and analyzed with a UV spectrometer for any AI that went through the water washing process. The ten 10-ml sequential washings were a simulation of how an AI applied to soil would remain on the soil and migrate through the soil under a rain environmental exposure condition.
Dry 100% solid samples were placed on the filter paper directly and subsequently washed with ten 10-ml aliquots in a similar manner as the liquid samples that were dried after placement on the filter paper.
Various concentrations of the AI's were dissolved in water or water and a co-solvent and analyzed at 254 nm or other UV/visible regions of the spectrum in order to establish a standard calibration curve of absorbance versus AI concentration.

The nature of data set [2]: Soil column test: topsoil column washed with ten 10-ml aliquots of water. It counts as physicochemical. The method, then: The soil column was prepared by cutting off the tip of a 15 ml VWR brand CAT, No. 20171-036 polypropylene centrifuge tube leaving approximately a ⅛-inch opening, which was filled with cotton to prevent the soil from pouring out the bottom. The cotton block was 0.5-inch thick, which held unpacked 3 inches of Nature's topsoil from the Michigan Peat Co., (Oakland Nursery). The topsoil was sieved ten times through a #7 metal screen sieve to remove large debris before filling the tubes.
A 50-μl sample of the mixture was applied to the filter paper and dried while a 200-μl sample was applied to the top of the soil columns and dried before washing with ten 10-ml aliquots of water.

The conditions of data set [3]: cited from earlier work.
The conditions of data set [4]: cited from earlier work. This is another data set of the same source.
The conditions of data set [5]: cited from earlier work. The source holds these as a separate data set.
Data set [6] has as its system kohlrabi leaves. The conditions noted are these: fine crystalline wax surface; cited from earlier work.
Data set [7] relates to sugar beet leaves. The conditions noted are these: amorphous wax surface; cited from earlier work.
[8] abbreviates: filter paper, 10-ml water washing 6.
The mark [9] stands for this setting: filter paper, 10-ml water washing 7.
Where [10] appears, read: filter paper, 10-ml water washing 8.
The mark [11] stands for this setting: filter paper, 10-ml water washing 9.
Where [12] appears, read: filter paper, 10-ml water washing 10, * = not all released after 10 washings.
Where [13] appears, read: Table 26, USDA Pesticide Properties Database.

As to `CC(C)N.O=C(O)COc1ccc(Cl)cc1Cl` [2,4-D Amine Salt], the “number of 10-ml water washes to pass through / be depleted from the filter paper” value in data set [1] was 1-2 washes. The “controlled-release properties (in words)” value in data set [1] (filter paper, 10-ml aliquots of water) is recorded as “no control release capabilities”. Further, the “% released” value in data set [1] (filter paper, 10-ml water washing 1) came to 94%; in data set [1] (filter paper, 10-ml water washing 1, listed as 2,4-D Salt), 86%; in data set [1] (filter paper, 10-ml water washing 2) it was 6%; in data set [1] (filter paper, 10-ml water washing 2, listed as 2,4-D Salt), 14%; in data set [1] (filter paper, 10-ml water washing 3), 0%; in data set [1] (filter paper, 10-ml water washing 4), 0%. In addition, the “% released” value stood at 0% in data set [1] (filter paper, 10-ml water washing 5); 0% in data set [1] (setting [8]); 0% in data set [1] (setting [9]); 0% in data set [1] (setting [10]); 0% in data set [1] (setting [11]); 0% in data set [1] (setting [12]). Further, the “% released” value came out at 32% in data set [2] (10-ml water washing 1); 26% in data set [2] (10-ml water washing 2); 20% in data set [2] (10-ml water washing 3); 13% in data set [2] (10-ml water washing 4); 9% in data set [2] (10-ml water washing 5); 0% in data set [2] (10-ml water washing 6). Besides, the “% released” value in data set [2] (10-ml water washing 7), in data set [2] (10-ml water washing 8), in data set [2] (10-ml water washing 9) and in data set [2] (10-ml water washing 10) was 0% in each case. For the same compound, the “R (rating factor, number of washings to deplete the AI)” value came to 2 in data set [1] (filter paper) and 5 in data set [2] (ten 10-ml water washings).

As a reminder, the Log P is the decadic logarithm of the partition coefficient of the neutral form, usually between octanol and water. Regarding `COc1c(Cl)ccc(Cl)c1C(=O)O` [Dicamba], the KOC was 2 mg/g in data set [3] (setting [13]) and 12 in data set [3] (Tables 21-25). In addition, the “Log P” value in data set [4] is −1.88. For the same compound, the “Water Solubility” value in data set [5] is 250000 µg/mL.

In the case of `CN(C)C(=O)Nc1ccccc1` [Fenuron], in data set [3] (Tables 21-25), the KOC is on record as 42. Also, the “Log P” value in data set [4] is on record as 0.98. Also, the “Water Solubility” value in data set [5] is 3850 µg/mL.

`O=C(O)CNCP(=O)(O)O` [Glyphosate]: the “capability to penetrate leaf surfaces” value in data set [6] and in data set [7] was “very little capability to penetrate leaf surfaces” throughout.

For the compound `CC(C)C1(C)N=C(c2ncccc2C(=O)O)NC1=O` (stereo not shown) [Imazapyr], the “% released” value is 49% in data set [1] (filter paper, 10-ml water washing 1, listed as AI Control); 41% in data set [1] (filter paper, 10-ml water washing 1, listed as IMI Acid); 28% in data set [1] (filter paper, 10-ml water washing 1, listed as IMI acid alone); 47% and 49% in data set [1] (filter paper, 10-ml water washing 2, listed as AI Control); 39% and 37% in data set [1] (filter paper, 10-ml water washing 2, listed as IMI Acid); 30% in data set [1] (filter paper, 10-ml water washing 2, listed as IMI acid alone). For the same compound, the “% released” value in data set [1] (filter paper, 10-ml water washing 3, listed as AI Control) was 4% and 2%; in data set [1] (filter paper, 10-ml water washing 3, listed as IMI Acid) it was 14%; in data set [1] (filter paper, 10-ml water washing 3, listed as IMI acid alone) it was 25%; in data set [1] (filter paper, 10-ml water washing 4, listed as AI Control), 0%; in data set [1] (filter paper, 10-ml water washing 4, listed as IMI Acid), 6% and 5%; in data set [1] (filter paper, 10-ml water washing 4, listed as IMI acid alone) it was 13%. Moreover, the “% released” value is reported as 0% in data set [1] (filter paper, 10-ml water washing 5, listed as AI Control); 0% in data set [1] (filter paper, 10-ml water washing 5, listed as IMI Acid); 4% in data set [1] (filter paper, 10-ml water washing 5, listed as IMI acid alone); 0% in data set [1] (setting [8]); 0% in data set [1] (setting [9]); 0% in data set [1] (setting [10]). Further, the “% released” value in data set [1] (setting [11]) and in data set [1] (setting [12]) was 0% in each case. Also, the “R (rating factor, number of washings to deplete the AI)” value in data set [1] (filter paper, listed as AI Control) was found to be 3; in data set [1] (filter paper, listed as AI control), 3; in data set [1] (filter paper, listed as IMI Acid), 4; in data set [1] (filter paper, listed as IMI acid alone) it was 5.

Take `CON(C)C(=O)Nc1ccc(Cl)c(Cl)c1` [Linuron]: the KOC was 400 mg/g in data set [3] (setting [13]) and 620 in data set [3] (Tables 21-25). The “Water Solubility” value in data set [5] is 63.8 µg/mL.

Regarding `CCCCN(C)C(=O)Nc1ccc(Cl)c(Cl)c1` [Neburon], the KOC in data set [3] (Tables 21-25) is reported as 2500. Further, the “Log P” value in data set [4] was 3.8.

On to `CC(COc1ccc(Oc2ccccc2)cc1)Oc1ccccn1` (stereo not shown) [Pyriproxyfen], for which the Koc in data set [3] (clay-loam soils) is on record as 58,000. Besides, the “% released” value in data set [1] (filter paper/soil release system, washing 1 (first line)) worked out at 0%; in data set [1] (filter paper/soil release system, washing 3), 0%; in data set [1] (filter paper/soil release system, washing printed 1 (second line)), 0%. In addition, the “mobility on filter paper or soil” value was “no mobility” in data set [1] and “did not move with any of the water washes” in data set [1] (listed as PPF).

Regarding `c1ccc2[nH]c(-c3cscn3)nc2c1` [Thiabendazole], in data set [3] (Tables 21-25), the KOC is recorded as 2500. Also, the “Log P” value in data set [4] is listed as 2.39. In addition, in data set [5], the “Water Solubility” value was 30 µg/mL.
